Reference: PubChem BioAssay AID2060350 (Molecular Pharmacology Branch, DTP, NCI, 2025)

Test system: PDC 521955-158-R6-J3 spheroids, viability
Experiment: Anticancer human tumor 521955-158-R6-J3-PDC patient-derived pancreatic carcinoma cell line growth inhibition [TAK]
Settings: spheroids with HUVEC and MSC; for IC50: curve of first compound; for viability, T/C: stronger effect = lower value
Summary of the method: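 Spheroids of 60% malignant cells, 25% HUVEC and 15% hMSC were exposed to targeted agents combined with TAK-243 or ipatasertib. Concentrations started at or near clinical Cmax (10 microM if unknown) and descended in half-log steps.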
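Also: spheroids exposed to drugs for 7 days before readout.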
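For viability, T/C in this document: 100% = DMSO vehicle control viability.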

SMILES: CC(C)n1nc(-c2ccc3oc(N)nc3c2)c2c(N)ncnc21 + CC(C)NCC(C(=O)N1CCN(c2ncnc3c2C(C)CC3O)CC1)c1ccc(Cl)cc1
- IC50 (second compound 0.3 µM): > 100 nM
- IC50 (second compound 0.949 µM): 49.5 nM
- IC50 (second compound 3 µM): 24 nM
- IC50 (second compound 9.49 µM): 16.3 nM
- IC50 (second compound 30 µM): 6.44 nM
- viability, T/C (second compound 0.3 µM, first compound 0.000316 µM): 83.2%
- viability, T/C (second compound 0.3 µM, first compound 0.001 µM): 85%
- viability, T/C (second compound 0.3 µM, first compound 0.00316 µM): 87.1%
- viability, T/C (second compound 0.3 µM, first compound 0.01 µM): 80.5%
- viability, T/C (second compound 0.3 µM, first compound 0.0316 µM): 70.3%
- viability, T/C (second compound 0.3 µM, first compound 0.1 µM): 54.1%
- viability, T/C (second compound 0.949 µM, first compound 0.000316 µM): 70.3%
- viability, T/C (second compound 0.949 µM, first compound 0.001 µM): 74.7%
- viability, T/C (second compound 0.949 µM, first compound 0.00316 µM): 71.9%
- viability, T/C (second compound 0.949 µM, first compound 0.01 µM): 77%
- viability, T/C (second compound 0.949 µM, first compound 0.0316 µM): 56.3%
- viability, T/C (second compound 0.949 µM, first compound 0.1 µM): 40.2%
- viability, T/C (second compound 3 µM, first compound 0.000316 µM): 75.6%
- viability, T/C (second compound 3 µM, first compound 0.001 µM): 76.8%
- viability, T/C (second compound 3 µM, first compound 0.00316 µM): 70%
- viability, T/C (second compound 3 µM, first compound 0.01 µM): 66.8%
- viability, T/C (second compound 3 µM, first compound 0.0316 µM): 44.6%
- viability, T/C (second compound 3 µM, first compound 0.1 µM): 29.8%
- viability, T/C (second compound 9.49 µM, first compound 0.000316 µM): 64%
- viability, T/C (second compound 9.49 µM, first compound 0.001 µM): 67.3%
- viability, T/C (second compound 9.49 µM, first compound 0.00316 µM): 73.9%
- viability, T/C (second compound 9.49 µM, first compound 0.01 µM): 55%
- viability, T/C (second compound 9.49 µM, first compound 0.0316 µM): 40.3%
- viability, T/C (second compound 9.49 µM, first compound 0.1 µM): 26.4%
- viability, T/C (second compound 30 µM, first compound 0.000316 µM): 63.2%
- viability, T/C (second compound 30 µM, first compound 0.001 µM): 62.5%
- viability, T/C (second compound 30 µM, first compound 0.00316 µM): 54.5%
- viability, T/C (second compound 30 µM, first compound 0.01 µM): 47.4%
- viability, T/C (second compound 30 µM, first compound 0.0316 µM): 33.4%
- viability, T/C (second compound 30 µM, first compound 0.1 µM): 23.9%

SMILES: CCCS(=O)(=O)Nc1ccc(F)c(C(=O)c2c[nH]c3ncc(-c4ccc(Cl)cc4)cc23)c1F + CC(C)NCC(C(=O)N1CCN(c2ncnc3c2C(C)CC3O)CC1)c1ccc(Cl)cc1
- IC50 (second compound 0.3 µM): > 100000 nM
- IC50 (second compound 0.949 µM): > 100000 nM
- IC50 (second compound 3 µM): 64000 nM
- IC50 (second compound 9.49 µM): 60100 nM
- IC50 (second compound 30 µM): 21800 nM
- viability, T/C (second compound 0.3 µM, first compound 0.316 µM): 143%
- viability, T/C (second compound 0.3 µM, first compound 1 µM): 89.8%
- viability, T/C (second compound 0.3 µM, first compound 3.16 µM): 96.1%
- viability, T/C (second compound 0.3 µM, first compound 10 µM): 92.2%
- viability, T/C (second compound 0.3 µM, first compound 31.6 µM): 79.8%
- viability, T/C (second compound 0.3 µM, first compound 100 µM): 176%
- viability, T/C (second compound 0.949 µM, first compound 0.316 µM): 98.1%
- viability, T/C (second compound 0.949 µM, first compound 1 µM): 108%
- viability, T/C (second compound 0.949 µM, first compound 3.16 µM): 80.6%
- viability, T/C (second compound 0.949 µM, first compound 10 µM): 128%
- viability, T/C (second compound 0.949 µM, first compound 31.6 µM): 79.5%
- viability, T/C (second compound 0.949 µM, first compound 100 µM): 159%
- viability, T/C (second compound 3 µM, first compound 0.316 µM): 93.3%
- viability, T/C (second compound 3 µM, first compound 1 µM): 97.5%
- viability, T/C (second compound 3 µM, first compound 3.16 µM): 81%
- viability, T/C (second compound 3 µM, first compound 10 µM): 97.4%
- viability, T/C (second compound 3 µM, first compound 31.6 µM): 66.6%
- viability, T/C (second compound 3 µM, first compound 100 µM): 39.5%
- viability, T/C (second compound 9.49 µM, first compound 0.316 µM): 94.8%
- viability, T/C (second compound 9.49 µM, first compound 1 µM): 98.5%
- viability, T/C (second compound 9.49 µM, first compound 3.16 µM): 78.5%
- viability, T/C (second compound 9.49 µM, first compound 10 µM): 88.9%
- viability, T/C (second compound 9.49 µM, first compound 31.6 µM): 87.4%
- viability, T/C (second compound 9.49 µM, first compound 100 µM): 20.4%
- viability, T/C (second compound 30 µM, first compound 0.316 µM): 106%
- viability, T/C (second compound 30 µM, first compound 1 µM): 108%
- viability, T/C (second compound 30 µM, first compound 3.16 µM): 132%
- viability, T/C (second compound 30 µM, first compound 10 µM): 99.8%
- viability, T/C (second compound 30 µM, first compound 31.6 µM): 20.2%
- viability, T/C (second compound 30 µM, first compound 100 µM): 7.85%
